Eight molecules from patent publication US6015805A, “17β-nitro-11β-arylisteroids and their derivatives having agonist or antagonist hormonal properties” (Research Triangle Research North Carolina, priority 1999, dated 2000) can be followed below.

One assay addresses T1, progestin receptor (rPR) (Oryctolagus cuniculus, UniProt P06186).
T1 construct: hormone receptors for progestins and glucocorticoids from rabbits; from tissue; host or cells: rabbit
T1 sequence (P06186 1-930): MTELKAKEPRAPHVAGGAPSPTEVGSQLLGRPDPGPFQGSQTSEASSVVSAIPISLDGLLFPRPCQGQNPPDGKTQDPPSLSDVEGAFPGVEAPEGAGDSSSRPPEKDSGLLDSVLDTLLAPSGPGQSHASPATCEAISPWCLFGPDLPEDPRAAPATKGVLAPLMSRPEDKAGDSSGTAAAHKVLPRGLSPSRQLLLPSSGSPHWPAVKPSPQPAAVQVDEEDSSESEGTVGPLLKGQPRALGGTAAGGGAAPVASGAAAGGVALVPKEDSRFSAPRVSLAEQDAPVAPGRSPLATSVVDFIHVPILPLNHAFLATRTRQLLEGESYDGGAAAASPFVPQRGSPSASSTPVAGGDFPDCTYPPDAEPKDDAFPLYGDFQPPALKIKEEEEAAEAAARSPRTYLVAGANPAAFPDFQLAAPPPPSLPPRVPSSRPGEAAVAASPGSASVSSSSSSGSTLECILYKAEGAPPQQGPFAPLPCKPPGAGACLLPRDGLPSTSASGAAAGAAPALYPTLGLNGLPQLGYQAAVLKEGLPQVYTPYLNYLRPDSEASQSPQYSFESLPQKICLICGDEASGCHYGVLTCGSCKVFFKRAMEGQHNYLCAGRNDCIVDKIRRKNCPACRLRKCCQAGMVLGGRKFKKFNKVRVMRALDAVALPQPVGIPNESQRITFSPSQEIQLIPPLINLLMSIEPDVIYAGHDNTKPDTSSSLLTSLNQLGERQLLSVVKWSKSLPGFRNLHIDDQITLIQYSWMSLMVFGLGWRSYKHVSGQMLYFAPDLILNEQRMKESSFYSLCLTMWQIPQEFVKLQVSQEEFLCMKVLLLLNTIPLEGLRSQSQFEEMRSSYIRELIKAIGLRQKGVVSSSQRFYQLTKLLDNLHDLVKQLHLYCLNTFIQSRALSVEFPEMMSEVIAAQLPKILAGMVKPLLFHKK
Briefly: Receptor binding (rabbit), progestin receptor. The conditions noted are these: for Ratio PR/GR: ratio of rPR to rGR relative affinities; for Relative Binding Affinity, rPR, Relative Affinity (Progesterone): relative to progesterone = 100, rabbit progestin receptor.

In assay [1] the target is T2, glucocorticoid receptor (rGR) (Oryctolagus cuniculus, UniProt P59667).
T2 construct: the source of the glucocorticoid receptor was the thymus of the estrogen-primed immature female rabbit; from tissue; host or cells: thymus of the estrogen-primed immature female rabbit
T2 sequence (P59667 1-772): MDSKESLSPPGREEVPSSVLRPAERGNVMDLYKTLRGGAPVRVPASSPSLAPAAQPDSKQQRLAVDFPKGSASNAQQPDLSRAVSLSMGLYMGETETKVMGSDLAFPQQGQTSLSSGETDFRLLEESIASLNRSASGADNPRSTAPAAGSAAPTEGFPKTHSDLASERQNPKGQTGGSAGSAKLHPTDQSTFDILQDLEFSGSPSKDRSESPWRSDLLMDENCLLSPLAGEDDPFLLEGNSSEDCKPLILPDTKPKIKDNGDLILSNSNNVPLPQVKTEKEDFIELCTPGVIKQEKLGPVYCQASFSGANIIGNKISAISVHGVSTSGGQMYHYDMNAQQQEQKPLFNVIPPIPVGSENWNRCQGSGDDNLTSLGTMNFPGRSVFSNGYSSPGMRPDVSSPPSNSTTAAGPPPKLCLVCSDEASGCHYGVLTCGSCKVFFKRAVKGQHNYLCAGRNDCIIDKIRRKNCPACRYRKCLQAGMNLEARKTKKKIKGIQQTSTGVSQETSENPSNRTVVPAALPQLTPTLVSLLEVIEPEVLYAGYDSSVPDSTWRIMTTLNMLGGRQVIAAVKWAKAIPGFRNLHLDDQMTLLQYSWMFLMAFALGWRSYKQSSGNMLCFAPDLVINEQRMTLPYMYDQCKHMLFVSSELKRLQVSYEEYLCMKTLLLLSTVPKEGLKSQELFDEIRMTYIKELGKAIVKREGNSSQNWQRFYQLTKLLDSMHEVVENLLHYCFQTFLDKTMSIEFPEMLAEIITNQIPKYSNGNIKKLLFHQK
The experiment in a line: Receptor binding (rabbit), glucocorticoid receptor. The conditions noted are these: relative to dexamethasone = 100. The method, then: (§1) The affinity of the compounds for hormone receptors for progestins and glucocorticoids from rabbits was determined by standard procedures similar to those that have been described in C. E. Cook, et al., Human Reproduction, Volume 9, supplement 1, pp. 32-39 (1994). However, the source of the glucocorticoid receptor was the thymus of the estrogen-primed immature female rabbit. The affinity of the compounds for the human progesterone hormone receptor was determined by standard procedures similar to those that have been described in Horwitz, et al., Cell, 28: 633-42 (1982) and Mockus, et al., Endocrinology, 110: 1564-71 (1982). The receptor was obtained in cytosol from human T-47D breast cells and [^3 H]-R5020 was used as the radioligand. T47D cells (1 billion/mL) were homogenized in TEDG buffer (10 mM Tris, 1.5 mM EDTA, 1 mM dithiothreitol, 1 mM sodium molybdate, and 10% glycerol) using a Dounce pestle A, and the homogenate was centrifuged at 34,000×g for 1 hour. The supernatant was stored at -80° C. An aliquot of receptor preparation was combined with test compound, 0.4 nM [^3 H]-R5020, and TEDG buffer to a final volume of 150 ,μL and incubated for 4 hours at 4° C. in microtiter plates. At the end of incubation 40 μL 40% polyethylene glycol and 15 μL 1% human gamma globulin was added to the incubate and the contents of each well were harvested onto double thick B filter mats (Wallac LKB) using a TomTec harvester. A film of Meltilux scintillant wax was applied to the dried filter mats and the mats were counted in a scintillation counter to determine inhibition of [^3 H]-R5020 binding. Data are expressed as lC50 values, i.e., the concentration of compound that inhibits radioligand binding by 50%.

For assay [2], the system named is estrogen-primed immature female rabbits. The experiment in a line: Anti-Clauberg assay (oral test compound with subcutaneous progesterone). In kind it is in vivo, rabbit. The conditions noted are these: given orally together with subcutaneous progesterone; McPhail Index.
The target in assay [3] is T3, human progesterone hormone receptor (hPR) (Homo sapiens, UniProt P06401).
T3 construct: The receptor was obtained in cytosol from human T-47D breast cells; endogenous in cells; host or cells: T-47D human breast cells (cytosol)
T3 sequence (P06401 1-933): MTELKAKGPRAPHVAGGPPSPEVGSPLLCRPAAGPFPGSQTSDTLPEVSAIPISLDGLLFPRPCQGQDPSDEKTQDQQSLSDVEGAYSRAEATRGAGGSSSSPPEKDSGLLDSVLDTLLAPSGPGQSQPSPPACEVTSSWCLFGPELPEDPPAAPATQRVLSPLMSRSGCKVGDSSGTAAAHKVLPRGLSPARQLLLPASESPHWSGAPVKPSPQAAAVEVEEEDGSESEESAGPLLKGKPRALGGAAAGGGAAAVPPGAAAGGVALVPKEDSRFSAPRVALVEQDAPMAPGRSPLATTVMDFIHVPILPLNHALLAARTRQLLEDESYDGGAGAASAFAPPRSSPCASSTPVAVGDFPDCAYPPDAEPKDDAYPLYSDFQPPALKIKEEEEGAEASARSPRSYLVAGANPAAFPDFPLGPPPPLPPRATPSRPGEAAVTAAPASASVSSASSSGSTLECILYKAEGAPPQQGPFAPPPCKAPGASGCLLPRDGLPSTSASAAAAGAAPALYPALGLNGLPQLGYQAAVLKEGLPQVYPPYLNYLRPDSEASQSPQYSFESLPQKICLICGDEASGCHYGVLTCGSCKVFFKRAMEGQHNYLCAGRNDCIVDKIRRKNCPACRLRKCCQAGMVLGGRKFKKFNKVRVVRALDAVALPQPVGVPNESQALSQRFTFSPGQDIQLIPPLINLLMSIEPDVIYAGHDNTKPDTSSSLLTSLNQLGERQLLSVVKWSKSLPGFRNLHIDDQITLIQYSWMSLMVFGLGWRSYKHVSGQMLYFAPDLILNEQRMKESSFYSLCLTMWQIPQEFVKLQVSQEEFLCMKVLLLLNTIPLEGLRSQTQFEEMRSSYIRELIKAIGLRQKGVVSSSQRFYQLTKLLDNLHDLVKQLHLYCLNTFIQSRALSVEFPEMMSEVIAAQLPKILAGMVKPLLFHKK
The experiment in a line: Receptor binding (human), inhibition of [^3 H]-R5020 binding. The conditions noted are these: cytosol from human T-47D cells; 0.4 nM [^3 H]-R5020; 4 hours at 4° C. Here is the method:
as §1

The subject of assay [4] is rabbits. The experiment in a line: McGinty assay (progestational activity, test compound alone). Type of assay: in vivo, rabbit. Also on record: key: McPhail scoring scale for progestational endometrial response. Here is the method:
(§2) Progestational activity and antiprogestational activity were determined in rabbits by means of the McGinty test (test compound alone, procedure of McGinty et al., Endocrinology, 24: 829-832 (1939)) or anti-McGinty test (test compound plus progesterone, procedure of Tamara et al., Jpn. J. Fertil Steril 24: 48-81 (1979)). Results were scored according to McPhail (McPhail, J Physiol., 83: 146 (1934)). These are standard procedures known to those skilled in the art. The results of these assays are shown in Tables 4 (agonist activity) and 5 (antagonist activity). […] Physiol, 83: 146 (1934)).

The subject of assay [5] is rabbits. The experiment in a line: Anti-McGinty assay (antiprogestational activity, test compound plus progesterone). The conditions noted are these: for McPhail Index, Anti-McGinty Assay (Antagonist): plus progesterone. Also on record: key to McPhail Index, Anti-McGinty Assay, Standard / McPhail Index, Anti-McGinty Assay (Antagonist): McPhail scoring scale for progestational endometrial response. In kind it is in vivo, rabbit. The method, then: as §2

For the molecule `CC#C[C@]1([N+](=O)[O-])CC[C@H]2[C@@H]3CCC4=CC(=O)CCC4=C3[C@@H](c3ccc(N(C)C)cc3)C[C@@]21C` [I 4-Me2 N H O H --CC--CH3, 11β-[4-(N,N-Dimethylamino)phenyl]-17β-nitro-17α-(1-propynyl)estra-4,9-dien-3-one], at progestin receptor (rPR), the “Ratio PR/GR” value worked out at 1.5 and the “Relative Binding Affinity, rPR, Relative Affinity (Progesterone)” value (“Relative Binding Affinity, rPR” for short) is 55. In addition, in assay [1], the “Relative Binding Affinity, rGR, Relative Affinity (Dexamethasone)” value (from here on “Relative Binding Affinity, rGR”) is listed as 36. Also, the “antiprogestational activity in the anti-Clauberg assay” value in assay [2] is on record as “potent antiprogestin”.

Take `CN(C)c1ccc([C@H]2C[C@@]3(C)[C@@H](CC[C@]3(/C=C/CO)[N+](=O)[O-])[C@@H]3CCC4=CC(=O)CCC4=C32)cc1` [I 4-Me2 N H O H CH=CHCH2 OH, 11β-[4-(N,N-Dimethylamino)phenyl]-17α-[(E)-1-(3-hydroxy)propenyl]-17β-nitroestra-4,9-dien-3-one]: on progestin receptor (rPR), the “Ratio PR/GR” value came to 3.5 and the “Relative Binding Affinity, rPR” value is 56. Moreover, the “Relative Binding Affinity, rGR” value in assay [1] was 16.

As for `CSc1ccc([C@H]2C[C@@]3(C)[C@@H](CC[C@]3(CCCO)[N+](=O)[O-])[C@@H]3CCC4=CC(=O)CCC4=C32)cc1` [I 4-MeS H O H --(CH2)3 OH, 17α-(3-Hydroxypropyl)-11β-[4-(methylthio)phenyl]-17β-nitroestra-4,9-dien-3-one], on progestin receptor (rPR), the “Ratio PR/GR” value is given as 20.3 and the “Relative Binding Affinity, rPR” value is 61. The “Relative Binding Affinity, rGR” value in assay [1] is on record as 3.

Take `CSc1ccc([C@H]2C[C@@]3(C)[C@@H](CC[C@]3(C=CCO)[N+](=O)[O-])[C@@H]3CCC4=CC(=O)CCC4=C32)cc1` [I 4-MeS H O H CH=CHCH2 OH]: the “Relative Binding Affinity, rPR” value at progestin receptor (rPR) was determined as 32.

Take `C[S+]([O-])c1ccc([C@H]2C[C@@]3(C)[C@@H](CC[C@]3(CCCO)[N+](=O)[O-])[C@@H]3CCC4=CC(=O)CCC4=C32)cc1` (stereo partly drawn) [I 4-MeS(O) H O H --(CH2)3 OH, 17α-(3-Hydroxypropyl)-11β-[4-(methylsulfinyl)phenyl]-17β-nitroestra-4,9-dien-3-one]: at progestin receptor (rPR), the “Ratio PR/GR” value is greater than 10 and the “Relative Binding Affinity, rPR” value turned out to be 23. The “Relative Binding Affinity, rGR” value in assay [1] is reported as less than 2.

As for `CC(=O)c1ccc(C2CC3(C)C(CCC34CCC(C)=[N+]4[O-])C3CCC4=CC(=O)CCC4=C23)cc1` (stereo not drawn) [II 4-CH3 CO H O H -- CH3, 11β-(4-Acetylphenyl)-3',4'-dihydro-5'-methyl-1'-oxo-spiro[estra-4,9-dien-17β,2'(2'H)-pyrrole]-3-one], at progestin receptor (rPR), the “Relative Binding Affinity, rPR” value amounted to 21.

As to `CN(C)c1ccc([C@H]2C[C@@]3(C)[C@@H](CC[C@@]34CCC=[N+]4[O-])[C@@H]3CCC4=CC(=O)CCC4=C32)cc1` [II 4-Me2 N H O H -- H, 11β-[4-(N,N-Dimethylamino)phenyl]-3',4'-dihydro-1'-oxo-spiro[estra-4,9-dien-17β,2'(2'H)-pyrrole]-3-one], the IC50 in assay [3] was 18 nM. In addition, the “McPhail Index, McGinty Assay (Agonist)” value in the assay on rabbits [4] (dose 0.3 micrograms), in the assay with rabbits [4] (dose 3 micrograms) and in the assay on rabbits [4] (dose 30 micrograms) was 0 ± 0 throughout. The “McPhail Index, Anti-McGinty Assay (Antagonist)” value was found to be 2.0 ± 0.11 with rabbits [5] (dose 0.3 micrograms), 1.83 ± 0.2 in the assay with rabbits [5] (dose 3 micrograms) and 0.23 ± 0.23 in the assay on rabbits [5] (dose 30 micrograms).

As to `CC(=O)[C@H]1CC[C@H]2[C@@H]3CCC4=CC(=O)CC[C@]4(C)[C@H]3CC[C@]12C` [Progesterone, reference compound], the “McPhail Index, McGinty Assay, Standard” value in the assay on rabbits [4] (standard, dose not given) is 2.45 ± 0.14. Moreover, the “McPhail Index, Anti-McGinty Assay, Standard” value with rabbits [5] (standard, dose not given) is reported as 2.45 ± 0.14.
